The values that follow come from PubChem BioAssay AID1845197 (Molecular Pharmacology Branch, DTP, NCI, 2023).

This assay concerns 349418-098-R tumor spheroid viability. Kind of assay: Anticancer human tumor 349418-098-R patient-derived lung adenocarcinoma cell line growth inhibition. As to conditions: spheroids with HUVEC and MSC; for viability, T/C: stronger effect = lower value. The procedure, abridged: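 Single agents and combinations were tested on spheroids built from tumor cells plus HUVEC and hMSC, at half-log dilutions starting at or near clinical Cmax, else 10 microM; final DMSO 0.25% (v/v).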

Several values for one entry are separate records, joined by “and”; a condition that tells them apart may be missing. Equal entries are not always repeated.
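Also: spheroids exposed to compound for 7 days before measurement.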
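For viability, T/C in this document: percent of vehicle control viability with 100% = DMSO-treated spheroids.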

As for `CC1COCCN1c1cc(-c2ccnn2C)c2ccnc(-c3ccn[nH]3)c2n1` (centres undefined) + CC[C@@]1(O)C(=O)OCc2c1cc1n(c2=O)Cc2cc3c(CN(C)C)c(O)ccc3nc2-1, the IC50 (commonly the midpoint of a concentration-inhibition curve) (curve of first compound, second compound 0.003 µM) was 79 nM; the IC50 (curve of first compound, second compound 0.00949 µM) is below 31.6 nM; the half-inhibitory concentration (IC50) (curve of first compound, second compound 0.03 µM) was below 31.6 nM; the IC50 (curve of first compound, second compound 0.0949 µM) is below 31.6 nM; the IC50 (curve of first compound, second compound 0.3 µM) was below 31.6 nM. Besides, the viability, T/C (commonly the result in the treated group divided by that in the control group, in per cent) runs as follows: (second compound 0.003 µM, first compound 0.0316 µM) 107%; (second compound 0.003 µM, first compound 0.1 µM) 35.1%; (second compound 0.003 µM, first compound 0.316 µM) 16%; (second compound 0.003 µM, first compound 1 µM) 15%; (second compound 0.003 µM, first compound 3.16 µM) 15.6%; (second compound 0.003 µM, first compound 10 µM) 14%. The viability, T/C (second compound 0.00949 µM, first compound 0.0316 µM) was 42.4%; the viability, T/C (second compound 0.00949 µM, first compound 0.1 µM) was 20.4%; the viability, T/C (second compound 0.00949 µM, first compound 0.316 µM) was 13.6%; the viability, T/C (second compound 0.00949 µM, first compound 1 µM) is 16.2%; the viability, T/C (second compound 0.00949 µM, first compound 3.16 µM) was 12.8%; the viability, T/C (second compound 0.00949 µM, first compound 10 µM) was 12%. Further, the viability, T/C by setting is: (second compound 0.03 µM, first compound 0.0316 µM) 13.5%; (second compound 0.03 µM, first compound 0.1 µM) 11.5%; (second compound 0.03 µM, first compound 0.316 µM) 9.56%; (second compound 0.03 µM, first compound 1 µM) 11.4%; (second compound 0.03 µM, first compound 3.16 µM) 11.6%; (second compound 0.03 µM, first compound 10 µM) 10.8%. The viability, T/C runs as follows: (second compound 0.0949 µM, first compound 0.0316 µM) 5.41%; (second compound 0.0949 µM, first compound 0.1 µM) 6.47%; (second compound 0.0949 µM, first compound 0.316 µM) 5.98%; (second compound 0.0949 µM, first compound 1 µM) 6.27%; (second compound 0.0949 µM, first compound 3.16 µM) 7.68%; (second compound 0.0949 µM, first compound 10 µM) 8.39%. The viability, T/C is, setting by setting: (second compound 0.3 µM, first compound 0.0316 µM) 3.23%; (second compound 0.3 µM, first compound 0.1 µM) 2.54%; (second compound 0.3 µM, first compound 0.316 µM) 2.76%; (second compound 0.3 µM, first compound 1 µM) 3.58%; (second compound 0.3 µM, first compound 3.16 µM) 4.37%; (second compound 0.3 µM, first compound 10 µM) 5.17%.
As for `[2H]c1nc(C)nc([2H])c1-c1cc(NC[C@@H](C)c2cccc3c(C(=O)NC)ccnc23)ncn1`, the viability, T/C by setting is: (compound 0.0316 µM) 109% and 102% and 93.6%; (compound 0.1 µM) 109% and 103% and 105%; (compound 0.316 µM) 106% and 101% and 113%; (compound 1 µM) 105% (2×) and 107%; (compound 3.16 µM) 114% and 103% (2×); (compound 10 µM) 112% and 102% and 105%. The IC50 (curve of compound) is above 10000 nM.
Turning to `Cc1sc2c(c1C)C(c1ccc(Cl)cc1)=NC(CC(=O)Nc1ccc(O)cc1)c1nnc(C)n1-2` (centres undefined), the viability, T/C was 99.1% and 96.4% and 100% (compound 0.00949 µM); 101% and 90.4% and 111% (compound 0.03 µM); 73% and 49% and 66.3% (compound 0.0949 µM); 13.4% and 14.2% and 11.2% (compound 0.3 µM); 1.66% and 1.1% and 1.46% (compound 0.949 µM); 0.54% and 0.67% and 1% (compound 3 µM). For the setting “curve of compound”, the IC50 is 148 nM and 96.5 nM and 134 nM.
On to `CC(C)n1c(=O)n(C)c2cnc3cc(F)c(-c4ccc(OCCCN5CCCCC5)nc4)cc3c21` + Cn1nnc2c(C(N)=O)ncn2c1=O, for which the IC50 came out at 9750 nM (curve of first compound, second compound 1 µM); 9000 nM (curve of first compound, second compound 3.16 µM); 9250 nM (curve of first compound, second compound 10 µM); 8890 nM (curve of first compound, second compound 31.6 µM); 8480 nM (curve of first compound, second compound 100 µM). Also, the viability, T/C is 104% (second compound 1 µM, first compound 0.0316 µM); 99.5% (second compound 1 µM, first compound 0.1 µM); 101% (second compound 1 µM, first compound 0.316 µM); 101% (second compound 1 µM, first compound 1 µM); 103% (second compound 1 µM, first compound 3.16 µM); 48.8% (second compound 1 µM, first compound 10 µM). The viability, T/C is 102% (second compound 3.16 µM, first compound 0.0316 µM); 105% (second compound 3.16 µM, first compound 0.1 µM); 103% (second compound 3.16 µM, first compound 0.316 µM); 103% (second compound 3.16 µM, first compound 1 µM); 102% (second compound 3.16 µM, first compound 3.16 µM); 44.7% (second compound 3.16 µM, first compound 10 µM). For the same molecule, the viability, T/C was 98.6% (second compound 10 µM, first compound 0.0316 µM); 103% (second compound 10 µM, first compound 0.1 µM); 99.6% (second compound 10 µM, first compound 0.316 µM); 103% (second compound 10 µM, first compound 1 µM); 104% (second compound 10 µM, first compound 3.16 µM); 46.3% (second compound 10 µM, first compound 10 µM). Besides, the viability, T/C runs as follows: (second compound 31.6 µM, first compound 0.0316 µM) 102%; (second compound 31.6 µM, first compound 0.1 µM) 106%; (second compound 31.6 µM, first compound 0.316 µM) 98.4%; (second compound 31.6 µM, first compound 1 µM) 105%; (second compound 31.6 µM, first compound 3.16 µM) 105%; (second compound 31.6 µM, first compound 10 µM) 43.9%. Besides, the viability, T/C is, setting by setting: (second compound 100 µM, first compound 0.0316 µM) 103%; (second compound 100 µM, first compound 0.1 µM) 107%; (second compound 100 µM, first compound 0.316 µM) 105%; (second compound 100 µM, first compound 1 µM) 102%; (second compound 100 µM, first compound 3.16 µM) 102%; (second compound 100 µM, first compound 10 µM) 41.3%.
